Data from US20110214190A1, “TRANSGENIC REPORTER MOUSE AND METHOD FOR USE” (priority 2008, published 2011).
Read-outs that look alike come from different tables or passages of the source. Peptide text beside a SMILES is read from it. * marks the point of attachment. Cbz = O=C(OCc1ccccc1)*

How the values were obtained:
[1] = cited from earlier work
Nf-κβ signaling = assay: Nf-κβ inhibitors on LipidA induced Luc/mC expression in vivo; parameters: species or system mouse
Description: A signaling pathway known to activate NGAL expression was taken advantage of in order to examine whether Luc2/mC expression was reversible after cessation of the stimulus. […] Subsequently, Nf-κβ mediates NGAL transcription. […] In addition, the testis is one of the few sites that tonically expresses NGAL and Luc2/mC, and even this site was suppressed by these inhibitors.

PARP = settings: after onset of acute hindlimb ischemia (post hoc), during I/R; cited from earlier work
[2] = system: cells from reporter kidneys; assay: NGAL-luciferase activity in primary cells from reporter kidneys; format: cell-based, mouse; settings: plates seeded with cells from reporter kidneys
Description: NGAL di-fusion primary cells from whole organs. Whole kidney cells were obtained from the NGAL di-fusion reporter mice (8-12 weeks of age) using collagenase (Sigma) digestion, differential sieving and seeded at a density of 1×10^5 per well. Cells were washed with a buffered salt solution and grown overnight before exposure to TLR agonists, ROS inducing species or toxin. Plates were imaged in the Xenogen IVIS optical imaging system (Xenogen Corp., Almeda, Calif.) for NGAL-luciferase activity.
Bioluminescence and Fluorescence Imaging of mCherry and luciferase Expression in Living Mice and primary cell lines. For in vivo bioluminescence imaging, mice were anesthetized, and injected with 150 mg/kg of luciferin in PBS (pH 7) via IP injection that is allowed to distribute in awake animals for about 10 minutes. […] Regions of interest (ROIs) were drawn on the dorsal side of the animal and quantified by using Living Image Software version 3.1. Counts detected in the ROIs by the CCD camera digitizer can by converted to physical units of radiance in photons/s/cm2/steradian. […] NGAL reporter primary cells were first imaged for mCherry activity with block excitation and block emission and NGAL-luciferase activity was quantified by detection of light emitted after cell lysis and incubation with luciferin. […]

cyst growth = settings: polycystic kidney disease model; cited from earlier work
NGAL expression = assay: Cell stressors, NGAL expression; format: cell-based; settings: H202 1 mmol/L for 4 hours
NGAL message [3] = assay: NGAL message (real-time PCR) in kidney after LipidA; format: in vivo, mouse; settings: 30 mg/kg LipidA
Protocol: (§1) Real-Time PCR were prepared according to Bio-Rad SYBR GREEN, iCyclerMyiQ protocols. Target genes, including Ngal, β-actin, utilized respectively: Ngal 116 forward primer 5′-[…]-3′ and NGALa593 reverse 5′-[…]-3′; β-actin415 forward primer 5′-[…]-3′ and β-actin 696 reverse primer 5′-[…]-3′. The ΔΔCT method was used to calculate fold amplification of transcripts.
as §1, with “Real Time” for “Real-Time”, “PCR analysis. Samples” for “PCR”, “processed” for “prepared”, “genes” for “genes, including Ngal, β-actin,”

NGAL message [4] = assay: Ngal in situ hybridization of kidney after lipidA challenge; format: in vivo, mouse; settings: after LipidA treatment
Protocol: In situ hybridization. NGAL RNA was detected using digoxigenin-labeled antisense riboprobes generated from cDNAs encoding Ngal (exon 1-7, 566 bp) by linearization with XhoI followed by T7 RNA polymerase. Kidneys were collected in ice-cold PBS and fixed overnight at 4° C. in 4% paraformaldehyde (PFA) in 0.1 M phosphate buffer saline (PBS), briefly quenched in 50 mM NH4Cl, cryoprotected overnight in 30% sucrose PBS and embedded and sectioned ([…]) in O.C.T. compound. The sections were post-fixed in 4% PFA for 10 min, treated with proteinase K (1 mg/ml for 3 min), acetylated and prehybridized for 2 hrs, and then hybridized at 68-72° C. overnight. The prehybridization and hybridization solution was 50% formamide, 5′SSC, 5′ Denhardts, […] baker's yeast RNA (Sigma), and […] herring sperm DNA (Sigma). Sections were washed at 72° C. in 5′SSC for 5-10 minutes, then at 72° C. in 0.2′SSC for 1 hour and then stained overnight (4° C.) with an anti-digoxigenin antibody coupled with alkaline phosphatase (Boehringer-Mannheim), at a 1:5000 dilution in 0.1 M Tris-HCl, pH 7.5, 0.15 M NaCl, 1% heat inactivated goat serum. Alkaline phosphatase activity was detected using BCIP, NBT (Boehringer-Mannheim) with 0.25 mg/ml levamisole in a humidified chamber for 1-3 days in the dark. Sections were dehydrated and mounted in Permount (Fisher Scientific). […]

[5] = format: in vivo, mouse
Description: Identification of Hidden Damage. Serum creatinine was little changed in our model of unilateral ischemia, because the untouched contralateral kidney limited the opportunity for azotemia.

NGAL reporter ES cells = assay: NGAL-luciferase responsiveness in NGAL reporter ES cells; format: cell-based, mouse; settings: NGAL reporter ES cells exposed to stimulant; control conditions no detectable expression
Description: […]. […] […]. Verification of the germline-transmitted F1 mice. The targeted allele was PCR-amplified by using primers F2, and R3 which was from the 1 Kb DNA fragment replaced by a DTA-AMP^r cassette in the targeting construct.
NGAL targeting in mouse ES cells. The NGAL-targeting construct was electroporated into the KV1 ES cells, and the neomycin-resistant ES clones were PCR-screened for the targeted NGAL allele for homologous recombination. Additionally, ES cells containing the NGAL di-fusion gene were challenged with either cisplatin or LPS to induce NGAL reporter activity (FIG. 1B, Panel D). ES cells with a Luc2-mCherry-LNL knockin allele were microinjected into wild-type C57B6 blastocysts to generate chimera which were subsequently mated with albino C57B6 female mice for germline transmission. The F1 mice were PCR-genotyped by using primers F1, R1 and R2, and the germline transmitted mice contained both targeted and wild type alleles (FIG. 1B, Panel C).
Luciferase (pGL4.10[luc2], Promega E6651) and mCherry (pmCherry [mC], Clontech 632522) genes separated by a 42 by spacer were ligated by overlap PCR and validated in 293T cells using a CMV promoter to drive robust Luc2 and mC bioluminescence and fluorescence (FIG. 1A, Panel A). […]

NGAL-Luc2/mC reporter = assay: In vivo bioluminescence imaging of NGAL di-fusion reporter mouse after LipidA; settings: for NGAL activity assayed by luciferase (Luc2/mC response): kidney, liver, spleen, skin and lung, 24 hours after lipidA i.p. at 5, 15 and 30 mg/kg
Protocol: Bioluminescence and Fluorescence Imaging of mCherry and luciferase Expression in Living Mice and primary cell lines. For in vivo bioluminescence imaging, mice were anesthetized, and injected with 150 mg/kg of luciferin in PBS (pH 7) via IP injection that is allowed to distribute in awake animals for about 10 minutes. […]. Mice are then placed in a light tight chamber equipped with a halogen light source, and whole body image was acquired for 30 seconds using the Xenogen IVIS optical imaging system with a block excitation filter and a block emission filter for NGAL-mCherry visualization and an open emission filter for NGAL-luciferase activity. Regions of interest (ROIs) were drawn on the dorsal side of the animal and quantified by using Living Image Software version 3.1. Counts detected in the ROIs by the CCD camera digitizer can by converted to physical units of radiance in photons/s/cm2/steradian. Visualization of NGAL di-fusion reporter activity in primary cells were also assayed in the bioimager. NGAL reporter primary cells were first imaged for mCherry activity with block excitation and block emission and NGAL-luciferase activity was quantified by detection of light emitted after cell lysis and incubation with luciferin.

NCC(=O)O.[CH+]=O.[CH+]=O.[CH+]=O.[Cl][Ru] [CORM-3, tricarbonylchloro(glycinato)ruthenium(II)]
Levels of plasma creatinine ([1]; given 1 hour before onset of ischemia, 24 hours after reperfusion): significantly decreased

CC(C)C[C@@H](C=O)NC(=O)[C@H](CC(C)C)NC(=O)[C@H](CC(C)C)NC(=O)OCc1ccccc1 [MG-132] (Cbz-Leu-Leu-Leu-aldehyde)
Tonic NGAL and Luc2/mC expression in testis (Nf-κβ signaling): suppressed | LipidA induced Luc/mC expression (Nf-κβ signaling; NGAL reporter mouse): reduced LipidA induced Luc/mC expression

CN(C)CC(=O)Nc1ccc2[nH]c(=O)c3ccccc3c2c1 [PJ34]
Local production of inflammatory mediators (PARP): modulates the local production of inflammatory mediators

N.N.[Cl][Pt][Cl] [cisplatin]
Response of primary reporter kidney cells (luciferase) [2]: direct effect on renal epithelia

CC(=O)O[C@H]1C(=O)[C@@]2(C)[C@H]([C@H](OC(=O)c3ccccc3)[C@]3(O)C[C@H](OC(=O)[C@H](O)[C@@H](NC(=O)c4ccccc4)c4ccccc4)C(C)=C1C3(C)C)[C@]1(OC(C)=O)CO[C@@H]1C[C@@H]2O [taxol]
Cyst growth (cyst growth): limit cyst growth

[C-]#[O+].[C-]#[O+].[C-]#[O+].[C-]#[O+].[C-]#[O+].[C-]#[O+].[Cl][Ru][Cl].[Cl][Ru][Cl] [tricarbonyldichlororuthenium(II) dimer]
Levels of plasma creatinine ([1]; in vivo): significantly decreased

Cobalt
NGAL expression (NGAL expression): trigger NGAL expression

LipidA
NGAL message induced in the kidney (NGAL message [3]): 30 fold | Localisation of Ngal expression in kidney (NGAL message [4]): predominate expression in inner medullary tubules | Localisation of Ngal expression in kidney (NGAL message [4]; listed as lipidA): expressed in tubules | Azotemia ([5]; 30 mg/kg dose of LipidA): induced Luc/mC and azotemia | Azotemia / serum creatinine ([5]; low doses of LipidA (Luc/mC still induced)): without azotemia or a change in serum creatinine | NGAL-luciferase activity (NGAL reporter ES cells): induced NGAL-luciferase activity | NGAL activity assayed by luciferase (Luc2/mC response) (NGAL-Luc2/mC reporter): graded Luc-mC response | NGAL activity assayed by luciferase (Luc2/mC response) (NGAL-Luc2/mC reporter; listed as lipidA): upregulated and dose dependent | Luc/mC induction, positive control (NGAL-Luc2/mC reporter; same mice at a later time after volume depletion): effectively induced Luc/mC | Response of primary reporter kidney cells (luciferase) [2]: responded in dose-dependent manner
